# Data taken from US20260262643A1, “HERBICIDAL BENZOXAZINES” (FMC CORPORATION, priority 2022, published 2026).
# Read-outs that look alike come from different tables or passages of the source.
# What was measured:
# soybean [1] = assay: Test A postemergence; assay type: in vivo, Glycine max; conditions: Glycine max, post-emergence, 240 h, postemergence, 10 days, 0 to 100 scale (0 no effect, 100 complete control); for plant injury at 500 g/ha: 500 g ai/ha, visual injury, read-out: Plant response rating, Soybean
# Summary of the method: (§1)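 Weeds and crops in loam–sand blend were sprayed preemergence onto soil or postemergence at 2–10 cm (one- to two-leaf stage). Test chemicals were in a non-phytotoxic solvent with surfactant. After 10 days in the greenhouse, injury was rated visually against untreated controls on a 0 (no effect) to 100 (complete control) scale.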
# foxtail, giant = assay: Test A postemergence; assay type: in vivo, Setaria faberi; conditions: Setaria faberi, post-emergence, 240 h, postemergence, 10 days, 0 to 100 scale (0 no effect, 100 complete control); for pest or weed control at 125 g/ha: 125 g ai/ha; for pest or weed control at 500 g/ha: 500 g ai/ha
# Summary of the method: as §1
# pigweed, palmer = assay: Test A preemergence; assay type: in vivo, Amaranthus palmeri; conditions: Amaranthus palmeri, pre-emergence, 240 h, read-out: Plant response rating, Pigweed, Palmer; for pest or weed control at 125 g/ha: 125 g ai/ha, visual injury after 10 days, 0 to 100 scale, 0 is no effect, 100 is complete control; for pest or weed control at 500 g/ha: 500 g ai/ha, 0 to 100 scale (0 no effect, 100 complete control), 10 days
# Summary of the method: as §1
# ryegrass, Italian = assay: Test A postemergence; assay type: in vivo, Lolium multiflorum; conditions: Lolium multiflorum, post-emergence, 240 h, postemergence, 10 days, 0 to 100 scale (0 no effect, 100 complete control); for pest or weed control at 500 g/ha: 500 g ai/ha, visual injury, read-out: Plant response rating, Ryegrass, Italian
# Summary of the method: as §1
# sedge, umbrella = assay: Test B flooded paddy test; assay type: in vivo, Cyperus difformis; conditions: Cyperus difformis, 312 h; 250 g ai/ha, Flood, 13 days, 0 to 100 scale (0 no effect, 100 complete control); read-out: Plant response rating, Sedge, Umbrella
# Summary of the method: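 Two-leaf plants, 3 cm flood, in-water application, 13-day greenhouse hold, visual 0–100 rating vs untreated checks.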
# wheat [2] = assay: Test A postemergence; assay type: in vivo, Triticum aestivum; conditions: Triticum aestivum, post-emergence, 240 h, postemergence, 10 days, 0 to 100 scale (0 no effect, 100 complete control); for plant injury at 500 g/ha: 500 g ai/ha, visual injury, read-out: Plant response rating, Wheat
# Summary of the method: as §1
# goosegrass = assay: Test A postemergence; assay type: in vivo, Eleusine indica; conditions: Eleusine indica, post-emergence, 240 h, postemergence, 10 days, 0 to 100 scale (0 no effect, 100 complete control); for pest or weed control at 125 g/ha: 125 g ai/ha; for pest or weed control at 500 g/ha: 500 g ai/ha
# Summary of the method: as §1
# ragweed [3] = assay: Test A postemergence; assay type: in vivo, Ambrosia artemisiifolia; conditions: Ambrosia artemisiifolia, post-emergence, 240 h, postemergence, 10 days, 0 to 100 scale (0 no effect, 100 complete control); for pest or weed control at 500 g/ha: 500 g ai/ha, visual injury, read-out: Plant response rating, Ragweed
# Summary of the method: as §1
# galium = assay: Test A postemergence; assay type: in vivo, Galium aparine; conditions: Galium, post-emergence, 240 h, postemergence, 10 days, 0 to 100 scale (0 no effect, 100 complete control); for pest or weed control at 125 g/ha: 125 g ai/ha; for pest or weed control at 500 g/ha: 500 g ai/ha
# Summary of the method: as §1
# oat, wild = assay: Test A postemergence; assay type: in vivo, Avena fatua; conditions: Avena fatua, post-emergence, 240 h, postemergence, 10 days, 0 to 100 scale (0 no effect, 100 complete control); for pest or weed control at 500 g/ha: 500 g ai/ha, visual injury, read-out: Plant response rating, Oat, Wild
# Summary of the method: as §1
# soybean [4] = assay: Test A preemergence; assay type: in vivo, Glycine max; conditions: Glycine max, pre-emergence, 240 h, read-out: Plant response rating, Soybean; for plant injury at 125 g/ha: 125 g ai/ha, visual injury after 10 days, 0 to 100 scale, 0 is no effect, 100 is complete control; for plant injury at 500 g/ha: 500 g ai/ha, 0 to 100 scale (0 no effect, 100 complete control), 10 days
# Summary of the method: as §1
# corn = assay: Test A preemergence; assay type: in vivo, Zea mays; conditions: Zea mays, pre-emergence, 240 h; for Corn plant response rating (crop injury, 0 = no effect, 100 = complete kill) at 125 g/ha: 125 g ai/ha, visual injury after 10 days, 0 to 100 scale, 0 is no effect, 100 is complete control; for Corn plant response rating (crop injury, 0 = no effect, 100 = complete kill) at 500 g/ha: 500 g ai/ha, 0 to 100 scale (0 no effect, 100 complete control), 10 days
# Summary of the method: as §1
# wheat [5] = assay: Test A preemergence; assay type: in vivo, Triticum aestivum; conditions: Triticum aestivum, pre-emergence, 240 h, read-out: Plant response rating, Wheat; for plant injury at 125 g/ha: 125 g ai/ha, visual injury after 10 days, 0 to 100 scale, 0 is no effect, 100 is complete control; for plant injury at 500 g/ha: 500 g ai/ha, 0 to 100 scale (0 no effect, 100 complete control), 10 days
# Summary of the method: as §1
# ragweed [6] = assay: Test A preemergence; assay type: in vivo, Ambrosia artemisiifolia; conditions: Ambrosia artemisiifolia, pre-emergence, 240 h, read-out: Plant response rating, Ragweed; for pest or weed control at 125 g/ha: 125 g ai/ha, visual injury after 10 days, 0 to 100 scale, 0 is no effect, 100 is complete control; for pest or weed control at 500 g/ha: 500 g ai/ha, 0 to 100 scale (0 no effect, 100 complete control), 10 days
# Summary of the method: as §1
# [7] = visual injury, read-out: Plant response rating, Foxtail, Giant
# [8] = visual injury, read-out: Plant response rating, Goosegrass
# [9] = visual injury, read-out: Plant response rating, Galium
SMILES,plant injury at 500 g/ha (soybean [1]) [%],"pest or weed control at 500 g/ha (foxtail, giant; [7]) [%]","pest or weed control at 125 g/ha (pigweed, palmer) [%]","pest or weed control at 500 g/ha (pigweed, palmer) [%]","pest or weed control at 500 g/ha (ryegrass, Italian) [%]","pest or weed control at 250 g/ha (sedge, umbrella) [%]",plant injury at 500 g/ha (wheat [2]) [%],pest or weed control at 500 g/ha (goosegrass; [8]) [%],pest or weed control at 500 g/ha (ragweed [3]) [%],pest or weed control at 500 g/ha (galium; [9]) [%],"pest or weed control at 500 g/ha (oat, wild) [%]",plant injury at 125 g/ha (soybean [4]) [%],plant injury at 500 g/ha (soybean [4]) [%],"Corn plant response rating (crop injury, 0 = no effect, 100 = complete kill) at 125 g/ha (corn) [%]","Corn plant response rating (crop injury, 0 = no effect, 100 = complete kill) at 500 g/ha (corn) [%]",plant injury at 125 g/ha (wheat [5]) [%],plant injury at 500 g/ha (wheat [5]) [%],pest or weed control at 125 g/ha (ragweed [6]) [%],pest or weed control at 500 g/ha (ragweed [6]) [%],further results
"Cc1ccc(-n2cnc(C(C)C)n2)cc1C(=O)N1C[C@H](C)Oc2c(Cl)cccc21 [Compound 73, [(2S)-8-Chloro-2,3-dihydro-2-methyl-4H-1,4-benzoxazin-4-yl][2-methyl-5-[3-(1-methylethyl)-1H-1,2,4-triazol-1-yl]phenyl]methanone]",100,90,100,100,100,70,80,60,80,100,80,60,100,60,80,20,80,30,90,"pest or weed control at 125 g/ha (foxtail, giant; [7]): 80%; pest or weed control at 125 g/ha (goosegrass; [8]): 20%; pest or weed control at 125 g/ha (galium; [9]): 100%"
"CCc1ccc(-n2cnc(C(C)C)n2)cc1C(=O)N1C[C@H](C)Oc2c(Cl)cccc21 [Compound 94, [(2S)-8-Chloro-2,3-dihydro-2-methyl-4H-1,4-benzoxazin-4-yl][2-ethyl-5-[3-(1-methylethyl)-1H-1,2,4-triazol-1-yl]phenyl]methanone]",100,90,100,100,90,98,70,90,50,100,80,50,100,60,90,50,90,0,0,"plant injury at 125 g/ha (soybean [1]; 125 g ai/ha, read-out: Soybean plant response rating): 100%; pest or weed control at 125 g/ha (foxtail, giant; read-out: Foxtail, Giant plant response rating): 90%; pest or weed control at 125 g/ha (ryegrass, Italian; 125 g ai/ha, read-out: Ryegrass, Italian plant response rating): 50%; plant injury at 125 g/ha (wheat [2]; 125 g ai/ha, read-out: Wheat plant response rating): 30%; pest or weed control at 125 g/ha (goosegrass; read-out: Goosegrass plant response rating): 60%; pest or weed control at 125 g/ha (ragweed [3]; 125 g ai/ha, read-out: Ragweed plant response rating): 50%; pest or weed control at 125 g/ha (galium; read-out: Galium plant response rating): 100%; pest or weed control at 125 g/ha (oat, wild; 125 g ai/ha, read-out: Oat, Wild plant response rating): 80%"
